Measurements reported in ChEMBL document CHEMBL1158672, “Rubrobramide, a cytotoxic and phytotoxic metabolite from Cladobotyrum rubrobrunnescens” (1998).
Converted amounts (≈) assume the structure as drawn. The source made the active and inactive calls. No cut-off for these calls is given here.

What was measured:
[1] = system: Meloidogyne incognita; assay: Nematicidal activity against Meloidogyne incognita; assay type: functional; details: read-out: LD50 (the source's name)
[2] = system: Setaria italica; assay: Phytotoxicity against Setaria italica assessed as inhibition of seedling germination at 100 ug/mL; assay type: functional; set-up: scale not given: the % may be the effect or the level left
[3] = system: Lepidium sativum; assay: Phytotoxicity against Lepidium sativum assessed as inhibition of seedling germination at 100 ug/mL; assay type: functional; set-up: scale not given: the % may be the effect or the level left
[4] = system: Meloidogyne incognita; assay: Nematicidal activity against Meloidogyne incognita up to 100 ug/mL; assay type: functional, organism-based
[5] = system: L1210; assay: Antiproliferative activity against mouse L1210 cells at 50 ug/mL; assay type: functional
[6] = system: HL-60; assay: Cytotoxicity against human HL60 cells up to 100 ug/mL; assay type: functional, cell-based
[7] = system: HeLa S3; assay: Cytotoxicity against human HeLaS3 cells up to 100 ug/mL; assay type: functional, cell-based

Row | SMILES | LC50 [1] [µg/mL] | Activity [2] [%] | Activity [3] [%] | Activity [4] | Activity [5] [%] | Activity [6] | Activity [7]
1 | COc1c(-c2ccco2)coc(=O)c1C [CLADOBOTRIN] | 100 (≈ 485 µM) |  |  |  |  |  | 
2 | CC(C)C[C@]12NC(=O)[C@@]3(O)C(=O)C[C@](C)(O[C@H]31)O2 [RUBROBRAMIDE] |  | 50 | 50 | inactive | 50 | inactive | inactive
